Test results: US11370841B2, “Methods of treating fibroblast growth factor 19-mediated cancers and tumors” (NGM Biopharmaceuticals, Inc., priority 2016, dated 2022)

Legend:
FGF19-mediated HCC = assay: Tumorigenicity study in db/db mice (AAV-SOCS3, tofacitinib); type: in vivo
Experimental: Blood parameters. Blood was collected from tail vein in un-anesthetized animals using microvette serum gel tubes (Sarstedt) for measurements of glucose, insulin, ALT, AST, ALP, bile acids, and FGF19 concentrations. Serum samples were prepared by centrifugation at 4° C. for 10 minutes at 6000 g after clotting at room temperature for 30 minutes. For HbA1c measurements, whole blood was collected after euthanasia by cardiac puncture into EDTA-tubes and quickly inverted multiple times. HbA1c (from whole blood samples) and liver enzyme (from serum samples) levels were measured on Cobas Integra 400 Clinical Analyzer (Roche Diagnostics). Serum FGF19 level was determined by FGF19 enzyme-linked immunosorbent assays (ELISA) (Biovendor). Serum insulin was assessed with ELISA kits from ALPCO. Concentrations of total bile acids in serum were determined using a 3β-hydroxysteroid dehydrogenase method (Diazyme). All assays were performed according to the manufacturers' instructions.
Histology and immunohistochemistry. Livers were fixed in 10% neutral-buffered formalin and embedded in paraffin. 5 μm sections were deparaffinized in xylenes, rehydrated sequentially in graded ethanol (100%, 95%, 80%, 70%, 50%, 2 minutes each). Hematoxylin and eosin staining was performed using standard methods. For immunohistochemical studies, liver sections were subjected to antigen retrieval in a citrate-based Antigen Unmasking Solution (Vector Laboratories), and incubated for 30 minutes with 3% H2O2 at room temperature to block endogenous peroxidase activity. Sections were stained with primary antibodies against glutamine synthetase (Thermo Fisher), BrdU, PCNA, or STAT3 in PBS containing 10% goat serum. Biotinylated secondary antibodies, ABC-HRP reagent (Vectastain ABC kit, #PK-6100, Vector Laboratories) and di-amine-benzidine (DAB) colorimetric peroxidase substrate (#SK-4100, Vector Laboratories) were used for detection. When indicated, sections were counterstained with hematoxylin. Digital imaging microscopy was performed using a Leica DM4000 microscope equipped with DFC500 camera and a scanning platform (Leica). Images for the entire liver section were acquired by stitching 70-96 fields together using Surveyor program for morphometric analysis. Glutamine synthetase-positive tumor areas were quantified using Measure/Count/Area tool from ImagePro software.
Tumorigenicity study in db/db mice. 11 to 12 week old db/db mice received a single intravenous dose of AAV containing either FGF19 or a control gene (green fluorescent protein). Body weight and blood glucose were monitored. […] Mice were euthanized 24 weeks post-AAV administration and examined for liver tumor formation by gross appearance and histology.

[1] = system: primary mouse hepatocytes; assay: In vitro pSTAT3 activation in primary mouse hepatocytes; type: cell-based; settings: isolated mouse hepatocytes, 50 ng/ml
Experimental: Primary mouse hepatocytes were isolated from 8-10 week old wild type mice (BioReclamation/IVT). Cells were diluted in attachment media, and cells were plated on collagen-coated 6-well plate (Becton Dickinson). Four hours later, cells were changed into M199 media supplemented with 10% FBS, 2 mM glutamine, 100 unit/ml penicillin, 100 unit/ml streptomycin, and cultured for 16 hours at 37° C. When indicated, 50 ng/ml FGF19 protein or 50 ng/ml mouse IL-6 (Peprotech) were added.
Cell extracts were prepared in 50 mM Tris-Cl, PH 7.2, 150 mM NaCl, 1% NP-40, 0.1% SDS, 0.5% sodium deoxycholate supplemented with a protease inhibitor cocktail (Roche) and phosphatase inhibitors (Sigma, phosphatase inhibitor cocktail set 2 and set 3), and protein concentrations were determined by BCA protein assay (Thermo Scientific).
Immunoblotting. Cell or tissue lysates were mixed with 4×SDS sample loading buffer (50 mM Tris-Cl, pH6.8, 2.5% SDS, urea, 4% β-mercaptoethanol), heated for 10 minutes at 95° C., and separated on 4-20% SDS-polyacrylamide gels (Life Technologies) in 1×MOPS running buffer. Proteins were transferred onto PVDF membranes (GE Healthcare). Membranes were blocked in TBST buffer (20 mM Tris-Cl, pH 7.6, 137 mM NaCl, 0.1% Tween-20) containing 5% non-fat dry milk for 1 hour at room temperature, and incubated with anti-pSTAT3^Y705, anti-total STAT3, anti-pERK, anti-total ERK, or anti-β-actin antibodies in blocking buffer at 4° C. overnight. Membranes were washed in TBST extensively, and bound proteins were detected with horseradish peroxidase-conjugated goat-anti-mouse IgG or goat-anti-rabbit IgG antibodies (GE Healthcare) for 1 hour at room temperature. […]
To investigate an in vitro direct effect of FGF19 on STAT3 activation in isolated hepatocytes, pSTAT3^Y705 levels in primary cultures of hepatocytes upon FGF19 stimulation were analyzed by western blotting. […] Cell lysates were prepared at the indicated time points following FGF19 stimulation and analyzed for phosphorylation of the various proteins.

[2] = system: primary mouse hepatocytes; assay: In vitro BrdU incorporation in primary mouse hepatocytes; type: cell-based; settings: 48 hours incubation
Experimental: FIGS. 2A-2E depict non-cell autonomous promotion of hepatocellular proliferation by FGF19. 11 week old mice (n=5 per group) were implanted with osmotic pumps releasing BrdU (8.5 mg/kg/day) and FGF19 protein (0.4 mg/kg/day). Livers were harvested 6 days post-implant. (FIG. 2A) Flow cytometry analysis of BrdU-labeled livers is shown. Representative histograms from hepatocytes stained with 7-ADD and anti-BrdU-APC are shown. (FIG. 2B) BrdU-positive hepatocytes as a percentage of total hepatocytes from vehicle (V)-treated (n=5) or FGF19-treated (n=5) mice were quantified by flow cytometry. (FIG. 2C) Shown are circulating FGF19 levels on day 6 post-implant of osmotic pumps. (FIG. 2D) Lack of proliferative effects of FGF19 on primary mouse hepatocytes. Primary cultures of hepatocytes isolated from mouse liver were incubated with recombinant FGF19 protein at the indicated concentrations for 48 hours and BrdU was added during the last 20 hours of incubation. BrdU incorporation was determined using a luminescence method. Mouse hepatocyte growth factor (mHGF) was included as a positive control. RLU, relative luminescence unit. (FIG. 2E) Lack of proliferative effects of FGF19 on primary human hepatocytes. Primary cultures of hepatocytes isolated from human liver were incubated with recombinant FGF19 protein. Human hepatocyte growth factor (hHGF) was included as a positive control. […]

[3] = diet with 0.01% tofacitinib from 4 weeks after AAV-FGF19, 20 weeks

Molecule: C[C@@H]1CCN(C(=O)CC#N)C[C@@H]1N(C)c1ncnc2[nH]ccc12 [tofacitinib]
- Average tumor load (FGF19-mediated HCC; [3]): reduced
- Number of macroscopically detectable tumors (FGF19-mediated HCC; [3]): reduced
- FGF19's effect on normalizing blood levels of HbA1c (FGF19-mediated HCC; tofacitinib in diet): no impact
- FGF19's effect on normalizing blood levels of bile acids (FGF19-mediated HCC; tofacitinib in diet): no impact
- FGF19's effect on normalizing blood levels of glucose (FGF19-mediated HCC; tofacitinib in diet): no impact
- FGF19-induced liver tumor formation (FGF19-mediated HCC; tofacitinib initiated 4 weeks after AAV, euthanized at 24 weeks): inhibited

B1: IL-6: mouse IL-6 (Peprotech), positive control for pSTAT3 activation (protein, UniProt P08505 25-211, looked up)
Interleukin-6: FPTSQVRRGDFTEDTTPNRPVYTTSQVGGLITHVLWEIVEMRKELCNGNSDCMNNDDALAENNLKLPEIQRNDGCYQTGYNQEICLLKISSGLLEYHSYLEYMKNNLKDNKKDKARVLQRDTETLIHIFNQEVKDLHKIVLPTPISNALLTDKLESQKEWLRTKTIQFILKSLEEFLKVTLRSTRQT
- STAT3 phosphorylation (pSTAT3 Y705) by western blotting [1]: robust elevated phosphorylation

B2: HGF: recombinant hepatocyte growth factor (Peprotech), positive control for BrdU incorporation (protein, UniProt Q08048 33-495; Q08048 496-728, looked up)
Hepatocyte growth factor …: QKKRRNTLHEFKKSAKTTLTKEDPLLKIKTKKVNSADECANRCIRNRGFTFTCKAFVFDKSRKRCYWYPFNSMSSGVKKGFGHEFDLYENKDYIRNCIIGKGGSYKGTVSITKSGIKCQPWNSMIPHEHSFLPSSYRGKDLQENYCRNPRGEEGGPWCFTSNPEVRYEVCDIPQCSEVECMTCNGESYRGPMDHTESGKTCQRWDQQTPHRHKFLPERYPDKGFDDNYCRNPDGKPRPWCYTLDPDTPWEYCAIKTCAHSAVNETDVPMETTECIQGQGEGYRGTSNTIWNGIPCQRWDSQYPHKHDITPENFKCKDLRENYCRNPDGAESPWCFTTDPNIRVGYCSQIPKCDVSSGQDCYRGNGKNYMGNLSKTRSGLTCSMWDKNMEDLHRHIFWEPDASKLNKNYCRNPDDDAHGPWCYTGNPLIPWDYCPISRCEGDTTPTIVNLDHPVISCAKTKQLR
Hepatocyte growth factor beta …: VVNGIPTQTTVGWMVSLKYRNKHICGGSLIKESWVLTARQCFPARNKDLKDYEAWLGIHDVHERGEEKRKQILNISQLVYGPEGSDLVLLKLARPAILDNFVSTIDLPSYGCTIPEKTTCSIYGWGYTGLINADGLLRVAHLYIMGNEKCSQHHQGKVTLNESELCAGAEKIGSGPCEGDYGGPLICEQHKMRMVLGVIVPGRGCAIPNRPGIFVRVAYYAKWIHKVILTYKL
- BrdU signal [2]: strong BrdU signals
